# Test results reported in ChEMBL document CHEMBL4385640, “Synthesis, SAR study, and biological evaluation of novel 2,3-dihydro-1H-imidazo[1,2-a]benzimidazole derivatives as phosphodiesterase 10A inhibitors” (Bioorg Med Chem, 2019).
# Calls of active or inactive are those of the source. No cut-off for these calls is given here.
# Assays:
# [1] = target: cAMP and cAMP-inhibited cGMP 3',5'-cyclic phosphodiesterase 10A (Homo sapiens, UniProt Q9Y233); assay: Inhibition of human PDE10A using cAMP as substrate preincubated for 30 mins followed by substrate addition and measured after 60 mins by HTRF detection assay
# Sequence of cAMP and cAMP-inhibited cGMP 3',5'-cyclic phosphodiesterase 10A (Q9Y233 whole entry): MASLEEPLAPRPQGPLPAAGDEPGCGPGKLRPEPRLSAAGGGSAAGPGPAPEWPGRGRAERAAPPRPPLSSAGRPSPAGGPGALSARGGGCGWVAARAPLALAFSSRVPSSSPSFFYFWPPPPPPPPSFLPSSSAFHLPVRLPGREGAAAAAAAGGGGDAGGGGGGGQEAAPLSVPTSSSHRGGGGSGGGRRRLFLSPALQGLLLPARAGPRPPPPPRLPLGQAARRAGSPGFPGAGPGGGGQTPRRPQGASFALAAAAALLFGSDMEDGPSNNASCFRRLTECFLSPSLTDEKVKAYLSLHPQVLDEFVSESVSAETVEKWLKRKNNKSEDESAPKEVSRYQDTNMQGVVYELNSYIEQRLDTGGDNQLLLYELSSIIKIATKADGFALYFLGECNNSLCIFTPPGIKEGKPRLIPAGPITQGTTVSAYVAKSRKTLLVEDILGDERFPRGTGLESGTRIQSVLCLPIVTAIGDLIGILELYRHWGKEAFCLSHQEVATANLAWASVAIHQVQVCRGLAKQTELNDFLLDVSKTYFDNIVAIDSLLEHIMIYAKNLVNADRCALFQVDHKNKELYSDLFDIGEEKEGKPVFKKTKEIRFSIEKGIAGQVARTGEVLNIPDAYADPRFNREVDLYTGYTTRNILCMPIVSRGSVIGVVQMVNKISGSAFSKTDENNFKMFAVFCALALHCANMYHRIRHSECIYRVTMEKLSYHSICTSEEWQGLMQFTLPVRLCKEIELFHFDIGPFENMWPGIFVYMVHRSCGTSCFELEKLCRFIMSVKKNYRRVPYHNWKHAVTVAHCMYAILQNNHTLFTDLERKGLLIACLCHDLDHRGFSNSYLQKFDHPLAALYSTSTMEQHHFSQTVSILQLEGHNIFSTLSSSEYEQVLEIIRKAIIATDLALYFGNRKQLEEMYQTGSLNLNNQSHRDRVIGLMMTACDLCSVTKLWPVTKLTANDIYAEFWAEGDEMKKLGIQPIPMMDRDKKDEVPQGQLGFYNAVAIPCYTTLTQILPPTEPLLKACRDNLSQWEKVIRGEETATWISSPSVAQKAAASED
# [2] = Drug uptake in mouse plasma at 0.1 mg/kg, po measured after 1 hr by LC-MS/MS analysis; assay type: ADME, organism-based
# [3] = Drug uptake in mouse brain at 0.1 mg/kg, po measured after 1 hr by LC-MS/MS analysis; assay type: ADME, organism-based
# [4] = Lipophilicity, logD of the compound at pH 7.4; assay type: physicochemical; conditions: buffer
# [5] = Apparent permeability in wild type pig LLC-PK1 cells at 1 uM incubated for 3 hrs by […] LC-MS/MS analysis; assay type: ADME, cell-based, Sus scrofa
# LLC-PK1 = assay: Ratio of efflux ratio of LLC-PK1 cells expressing human MDR1 at 1 uM to efflux ratio of wild type LLC-PK1 cells at 1 uM; assay type: ADME, cell-based, Sus scrofa; conditions: pig, llc-pk1, 1 µM
# CYP2C9 = CYP2C9 (Homo sapiens, UniProt P11712); assay: Inhibition of CYP2C9 in human liver microsomes assessed as enzyme residual activity incubated for 30 mins by LC-MS/MS analysis relative to control; assay type: ADME; conditions: read-out: Activity
# Sequence of CYP2C9 (P11712 whole entry): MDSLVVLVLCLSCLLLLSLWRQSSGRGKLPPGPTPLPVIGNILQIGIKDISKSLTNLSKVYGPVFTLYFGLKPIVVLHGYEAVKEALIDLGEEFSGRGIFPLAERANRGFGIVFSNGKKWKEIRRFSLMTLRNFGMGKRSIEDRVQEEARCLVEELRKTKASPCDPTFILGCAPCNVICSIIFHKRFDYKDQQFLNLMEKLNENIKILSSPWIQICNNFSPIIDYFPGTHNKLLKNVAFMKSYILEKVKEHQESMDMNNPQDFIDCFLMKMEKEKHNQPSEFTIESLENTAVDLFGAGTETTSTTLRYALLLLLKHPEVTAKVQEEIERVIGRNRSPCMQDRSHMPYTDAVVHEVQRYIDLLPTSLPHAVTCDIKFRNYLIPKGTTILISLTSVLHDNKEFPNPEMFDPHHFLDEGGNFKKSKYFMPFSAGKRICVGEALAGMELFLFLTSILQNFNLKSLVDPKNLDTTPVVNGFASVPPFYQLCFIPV
# Mus musculus [6] = assay: Antipsychotic activity in ICR mouse assessed as inhibition of Phencyclidine-induced hyperlocomotion pretreated orally followed by Phencyclidine injection and measured after 60 mins; assay type: functional, organism-based
# [7] = Toxicity in ICR mouse assessed as induction of catalepsy up to 100 mg/kg, po treated for 60 mins and measured up to 120 secs by bar test; assay type: organism-based; conditions: in vivo
# [8] = Intrinsic clearance in human liver microsomes by LC-MS/MS analysis; assay type: ADME, Microsome
# Mus musculus [9] = assay: Effect on mean number of arm entries in ddY mouse at 1 mg/kg, po pretreated 40 mins before MK-801 dosing and measured after 20 mins by Y-maze test; assay type: organism-based; conditions: in vivo
# [10] = Total brain to plasma partition coefficient, Kp in mouse at 0.1 mg/kg, po measured after 1 hr by LC-MS/MS analysis; assay type: ADME, organism-based
# CYP2D6 = CYP2D6 (Homo sapiens, UniProt P10635); assay: Inhibition of CYP2D6 in human liver microsomes assessed as enzyme residual activity incubated for 30 mins by LC-MS/MS analysis relative to control; assay type: ADME; conditions: read-out: Activity
# Sequence of CYP2D6 (P10635 whole entry): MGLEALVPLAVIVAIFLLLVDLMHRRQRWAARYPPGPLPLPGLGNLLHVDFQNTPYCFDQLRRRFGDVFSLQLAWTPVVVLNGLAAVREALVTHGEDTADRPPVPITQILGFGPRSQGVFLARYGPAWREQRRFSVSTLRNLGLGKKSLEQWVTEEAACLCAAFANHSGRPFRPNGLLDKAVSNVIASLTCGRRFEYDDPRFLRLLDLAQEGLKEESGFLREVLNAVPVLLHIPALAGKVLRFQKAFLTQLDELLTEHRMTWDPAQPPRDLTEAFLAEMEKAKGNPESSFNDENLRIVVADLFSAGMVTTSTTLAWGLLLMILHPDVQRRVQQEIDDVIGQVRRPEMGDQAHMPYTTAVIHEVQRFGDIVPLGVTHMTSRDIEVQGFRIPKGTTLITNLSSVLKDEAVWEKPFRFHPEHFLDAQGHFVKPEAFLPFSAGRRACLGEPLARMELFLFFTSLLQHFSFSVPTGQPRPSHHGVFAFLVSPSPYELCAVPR
# [11] = Solubility of the compound in pH 6.8 JP2 buffer; assay type: physicochemical
# CYP2C8 = target: T1, CYP2C8 (Homo sapiens, UniProt P10632); assay: Inhibition of CYP2C8 in human liver microsomes assessed as enzyme residual activity incubated for 30 mins by LC-MS/MS analysis relative to control; assay type: ADME; conditions: read-out: Activity
# T1 sequence (P10632 whole entry): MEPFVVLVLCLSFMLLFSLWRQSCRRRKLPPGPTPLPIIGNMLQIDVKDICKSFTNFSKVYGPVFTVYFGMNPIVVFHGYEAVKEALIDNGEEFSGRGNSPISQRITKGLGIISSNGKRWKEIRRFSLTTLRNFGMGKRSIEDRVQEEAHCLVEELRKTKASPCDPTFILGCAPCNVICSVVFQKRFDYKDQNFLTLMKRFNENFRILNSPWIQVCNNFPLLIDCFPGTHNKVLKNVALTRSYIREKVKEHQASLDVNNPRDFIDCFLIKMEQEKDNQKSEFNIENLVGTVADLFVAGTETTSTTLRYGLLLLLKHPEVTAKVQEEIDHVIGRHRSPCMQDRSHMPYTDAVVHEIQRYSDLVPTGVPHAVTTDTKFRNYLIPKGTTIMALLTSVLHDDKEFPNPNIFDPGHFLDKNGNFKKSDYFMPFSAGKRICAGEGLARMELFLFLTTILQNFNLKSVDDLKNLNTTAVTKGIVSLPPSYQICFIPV
# CYP3A4 = CYP3A4 (Homo sapiens, UniProt P08684); assay: Inhibition of CYP3A4 in human liver microsomes assessed as enzyme residual activity incubated for 30 mins by LC-MS/MS analysis relative to control; assay type: ADME; conditions: read-out: Activity
# Sequence of CYP3A4 (P08684 whole entry): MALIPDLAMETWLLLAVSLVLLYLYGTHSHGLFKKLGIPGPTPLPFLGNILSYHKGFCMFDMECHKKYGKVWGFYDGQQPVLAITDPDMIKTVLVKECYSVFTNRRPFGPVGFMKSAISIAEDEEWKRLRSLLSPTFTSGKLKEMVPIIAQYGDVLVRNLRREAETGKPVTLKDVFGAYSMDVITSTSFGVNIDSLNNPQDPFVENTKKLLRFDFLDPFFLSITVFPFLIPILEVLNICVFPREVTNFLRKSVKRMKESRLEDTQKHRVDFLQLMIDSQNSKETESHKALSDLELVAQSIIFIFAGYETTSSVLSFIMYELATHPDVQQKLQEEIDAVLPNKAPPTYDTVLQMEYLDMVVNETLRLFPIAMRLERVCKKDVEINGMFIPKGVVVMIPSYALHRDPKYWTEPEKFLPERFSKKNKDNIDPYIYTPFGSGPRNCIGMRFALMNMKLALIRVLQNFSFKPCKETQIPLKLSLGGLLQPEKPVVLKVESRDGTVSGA
# Mus musculus [12] = assay: Effect on mean number of arm entries in ddY mouse at 0.03 to 0.3 mg/kg, po pretreated 40 mins before MK-801 dosing and measured after 20 mins by Y-maze test; assay type: organism-based; conditions: in vivo
# CYP1A2 = target: T2, CYP1A2 (Homo sapiens, UniProt P05177); assay: Inhibition of CYP1A2 in human liver microsomes assessed as enzyme residual activity incubated for 30 mins by LC-MS/MS analysis relative to control; assay type: ADME; conditions: read-out: Activity
# T2 sequence (P05177 whole entry): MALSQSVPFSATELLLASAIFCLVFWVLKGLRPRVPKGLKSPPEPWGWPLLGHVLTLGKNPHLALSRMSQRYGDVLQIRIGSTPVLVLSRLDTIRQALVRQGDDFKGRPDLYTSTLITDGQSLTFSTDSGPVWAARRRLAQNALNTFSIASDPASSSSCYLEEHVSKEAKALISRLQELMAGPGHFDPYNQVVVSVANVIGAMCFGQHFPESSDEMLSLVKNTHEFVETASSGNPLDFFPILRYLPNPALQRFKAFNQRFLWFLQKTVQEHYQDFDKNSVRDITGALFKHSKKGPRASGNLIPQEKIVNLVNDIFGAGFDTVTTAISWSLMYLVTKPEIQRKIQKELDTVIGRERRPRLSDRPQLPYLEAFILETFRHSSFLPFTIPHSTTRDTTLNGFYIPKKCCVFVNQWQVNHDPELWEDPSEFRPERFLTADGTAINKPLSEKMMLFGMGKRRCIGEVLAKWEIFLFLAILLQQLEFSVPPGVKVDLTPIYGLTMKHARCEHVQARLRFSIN
# Mus musculus [13] = assay: Cognition enhancement activity in ddY mouse assessed as suppression of MK-801-induced working memory deficit by measuring decrease in spontaneous alternation behavior at 0.1 to 0.3 mg/kg, po pretreated 40 mins before MK-801 dosing and measured after 20 mins by Y-maze test; assay type: functional, organism-based
# CYP2C19 = CYP2C19 (Homo sapiens, UniProt P33261); assay: Inhibition of CYP2C19 in human liver microsomes assessed as enzyme residual activity incubated for 30 mins by LC-MS/MS analysis relative to control; assay type: ADME; conditions: read-out: Activity
# Sequence of CYP2C19 (P33261 whole entry): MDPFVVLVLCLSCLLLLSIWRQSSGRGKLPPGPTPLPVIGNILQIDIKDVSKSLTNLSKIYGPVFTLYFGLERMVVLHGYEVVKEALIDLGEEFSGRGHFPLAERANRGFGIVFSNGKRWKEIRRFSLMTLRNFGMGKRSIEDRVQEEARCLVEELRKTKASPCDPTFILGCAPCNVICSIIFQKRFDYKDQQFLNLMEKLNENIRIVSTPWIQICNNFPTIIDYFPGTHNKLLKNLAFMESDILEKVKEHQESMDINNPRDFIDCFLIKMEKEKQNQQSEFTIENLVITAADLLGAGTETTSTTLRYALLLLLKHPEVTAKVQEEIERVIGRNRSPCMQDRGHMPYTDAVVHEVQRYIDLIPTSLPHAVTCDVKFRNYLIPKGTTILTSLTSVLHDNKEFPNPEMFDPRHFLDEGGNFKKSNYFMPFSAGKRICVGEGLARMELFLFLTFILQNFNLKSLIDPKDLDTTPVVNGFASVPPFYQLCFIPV
# [14] = Intrinsic clearance in mouse liver microsomes by LC-MS/MS analysis; assay type: ADME, Microsome; conditions: read-out: CLH
SMILES,IC50 [1] [nM],Ratio (LLC-PK1),also measured
Cc1cc(C)n2nc(CC(=O)N3CCn4c3nc3c(C)cccc34)nc2n1,> 10000,–,–
Cc1cc(C)n2nc(CCNc3nc4ccccc4n3C)nc2n1,88,–,–
Cc1cc(C)n2nc(CCc3cc(O)n4nc5ccccc5c4n3)nc2n1,2,1.8,"concentration at 1 h [2]: 0.59 ng/mL; Drug uptake ([3]; in vivo, 1 h): Not Active; logD [4]: 0.3; Papp at 3 h, 1 µM [5]: 3.2 ×10⁻⁶ cm/s"
Cc1ccc2nc3n(c2c1)CCN3C(=O)Cc1nc2nc(C)cc(C)n2n1,416,–,–
Cc1cc(C)n2nc(CCNc3cnc4ccccc4n3)nc2n1,1220,–,–
Cc1cc(C)n2nc(CCNc3ncc4ccccc4n3)nc2n1,2080,–,–
Cc1ncc(C)n2nc(CC(=O)N3CCn4c3nc3ccccc34)nc12,44,1.3,–
Cc1cc(C)n2nc(CC(=O)N3CCn4c3nc3ccccc34)nc2n1,52,2.3,"Papp at 3 h, 1 µM [5]: 16.8 ×10⁻⁶ cm/s"
Cc1cc(C)n2nc(CC(=O)N3c4nc5ccccc5n4C[C@H]3c3ccccc3)nc2n1,1920,–,–
Cc1cc(C)n2nc(CC(=O)N3CCCn4c3nc3ccccc34)nc2n1,1480,–,–
Cc1cc(C)n2nc(CC(=O)N3CCn4c3nc3cccc(C)c34)nc2n1,279,–,–
Cc1ncc(C)n2nc(CC(=O)N3c4nc5ccccc5n4C[C@@H]3C)nc12,8.4,1.2,"concentration at 1 h [2]: 0.91 ng/mL; activity at 0.5 h (CYP2C9): 96%; Activity (Mus musculus [6]): Dose-dependent effect; Activity [7]: Non-Toxic; CLH [8]: Stable; Activity (Mus musculus [9]): Toxic; Kp at 1 h [10]: 2.3; activity at 0.5 h (CYP2D6): 102%; solubility [11]: 100 µM; concentration at 1 h ([3]; brain, read-out: Drug uptake): 2.2 ng/g; activity at 0.5 h (CYP2C8): 99%; activity at 0.5 h (CYP3A4): 90%; Activity (Mus musculus [12]): Non-Toxic; logD [4]: 2; Papp at 3 h, 1 µM [5]: 27.5 ×10⁻⁶ cm/s; activity at 0.5 h (CYP1A2): 98%; Activity (Mus musculus [13]): Active; activity at 0.5 h (CYP2C19): 90%; CLint scaled [14]: 175 mL/min/kg"
Cc1cc(C)n2nc(CC(=O)N3c4nc5ccccc5n4C[C@@H]3c3ccccc3)nc2n1,75,3.8,–
Cc1cc(C)n2nc(CCN3CCn4c3nc3ccccc34)nc2n1,138,3.6,"Papp at 3 h, 1 µM [5]: 19.2 ×10⁻⁶ cm/s"
Cc1cc(C)n2nc(CC(=O)N3c4nc5ccccc5n4CC3C)nc2n1 (racemic),69,2.4,–
Cc1cc(C)n2nc(CC(=O)N3CCn4c3nc3ccccc34)nc2c1,135,1.2,–
Cc1cc(C)n2cc(CC(=O)N3CCn4c3nc3ccccc34)nc2n1,275,1,–
Cc1cc(C)n2nc(CC(=O)N3CC(C)n4c3nc3ccccc34)nc2n1 (stereo unspecified),292,–,–
Cc1cc(C)n2nc(CC(=O)N3c4nc5ccccc5n4CC3(C)C)nc2n1,74,2.1,–
Cc1ccc2c(c1)nc1n2CCN1C(=O)Cc1nc2nc(C)cc(C)n2n1,441,–,–
Cc1cc(C)n2nc(CCNc3nc4ccccc4[nH]3)nc2n1,105,–,–
Cc1cc(C)n2nc(CC(=O)N3c4nc5ccccc5n4C[C@@H]3C)nc2n1,28,2.4,–
Cc1cc(C)n2nc(CCNc3ccc4ccccc4n3)nc2n1,294,–,–
Cc1cc(C)n2nc(CCc3cc(O)n4nc5ncccc5c4n3)nc2n1,2.9,–,–
Cc1cc(C)n2nc(CCc3ccn4nc5ccccc5c4n3)nc2n1,78,–,–
